Experiments:
Human ALDH3A1 = molecular target: T1, Human ALDH3A1 (Homo sapiens, UniProt P30838); test: ALDH3A1 biochemical assay (benzaldehyde/NADP+, diaphorase-resazurin readout, 1,536-well)
T1 sequence (P30838 1-453): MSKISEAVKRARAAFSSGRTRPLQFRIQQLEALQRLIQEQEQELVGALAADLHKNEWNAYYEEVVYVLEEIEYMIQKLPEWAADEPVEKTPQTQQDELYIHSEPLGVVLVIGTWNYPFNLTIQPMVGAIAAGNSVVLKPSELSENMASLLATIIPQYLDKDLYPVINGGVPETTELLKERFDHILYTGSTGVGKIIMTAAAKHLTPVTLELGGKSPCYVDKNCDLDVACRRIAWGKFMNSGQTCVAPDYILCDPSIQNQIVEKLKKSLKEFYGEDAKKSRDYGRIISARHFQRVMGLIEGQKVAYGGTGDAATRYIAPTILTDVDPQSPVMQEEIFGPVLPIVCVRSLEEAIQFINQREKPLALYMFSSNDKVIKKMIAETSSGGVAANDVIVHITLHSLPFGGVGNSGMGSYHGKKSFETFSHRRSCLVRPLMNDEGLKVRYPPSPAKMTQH

OE19 (3A1) = molecular target: T2, OE19 (3A1) (Homo sapiens, UniProt P30838); test: Cellular ALDEFLUOR assay in OE19 cells (preferential ALDH3A1 expression)
T2 sequence (P30838 1-453): T1 sequence (P30838 1-453)

[1] = Table S5, biochemical curve class
[2] = Table S4, biochemical curve class

Compound | AC50 (Human ALDH3A1) [µM] | Efficacy (Human ALDH3A1; Table S5, biochemical) | CC-v2 (Human ALDH3A1; [1]) | AC50 (OE19 (3A1)) [µM] | Cell_Efficacy (OE19 (3A1); Table S5, OE19 cells) | Cell_CC-v2 (OE19 (3A1); Table S5, cellular curve class) | Efficacy (Human ALDH3A1; Table S4, biochemical) | CC-v2 (Human ALDH3A1; [2]) | Cell_Efficacy (OE19 (3A1); Table S4, OE19 cells) | Cell_CC-v2 (OE19 (3A1); Table S4, cellular curve class)
CC(=O)c1cccc(CNC(=O)c2csc(N3CCN(c4cccc(C(F)(F)F)c4)CC3)n2)c1 [NCGC01397289-01] | 0.0251 | -100.97 | -1.1 | 0.342 | -79.11 | -1.3 | – | – | – | –
Cc1cccc(CNC(=O)c2csc(N3CCN(c4ccc(O)cc4)CC3)n2)c1 [NCGC01211126-01] | 5.76 | – | – | 15.7 | – | – | -62.10 | -1.2 | -68.34 | -1.2
CC(C)(O)c1ccc(CNC(=O)c2csc(N3CCN(c4cccc(C(F)(F)F)c4)CC3)n2)cc1 [NCGC01408044-01] | 0.891 | -74.78 | -1.2 | 0.0112 | -68.37 | 5 | – | – | – | –
O=C(NCc1cc(F)cc(Br)c1)c1csc(N2CCN(c3cccc(C(F)(F)F)c3)CC2)n1 [NCGC01397297-01] | 0.0036 | -107.41 | -1.1 | 2.16 | -85.43 | -1.1 | – | – | – | –
O=C(NCc1ccc2cc(Cl)ccc2c1)c1csc(N2CCN(c3cccc(C(F)(F)F)c3)CC2)n1 [NCGC01407805-01] | 0.0028 | -102.00 | -1.1 | 0.965 | -69.34 | -1.4 | – | – | – | –
O=C(COc1cccc(CNC(=O)c2csc(N3CCN(c4cccc(C(F)(F)F)c4)CC3)n2)c1)NC1CC1 [NCGC01407783-01] | 0.398 | -80.39 | -1.1 | 0.0316 | -92.90 | -1.3 | – | – | – | –
Cc1cccc(CNC(=O)c2csc(N3CCN(c4cc(F)cc(F)c4)CC3)n2)c1 [NCGC01211133-01] | 0.65 | – | – | 1.57 | – | – | -87.41 | -1.1 | -95.95 | -1.1
COc1ccc(N2CCN(c3nc(C(=O)NCc4cccc(C)c4)cs3)CC2)cc1O [NCGC01211394-01] | 1.15 | – | – | 15.7 | – | – | -71.12 | -1.2 | -88.85 | -2.3
Cc1cccc(CNC(=O)c2csc(N3CCN(c4cccc(C#N)c4)CC3)n2)c1 [NCGC01210664-01] | 1.02 | – | – | 11.1 | – | – | -83.70 | -1.1 | -103.93 | -2.1
Cc1cccc(CNC(=O)c2csc(N3CCN(c4ccc(Br)cc4)CC3)n2)c1 [NCGC01211165-01] | 0.81 | – | – | 0.7 | – | – | -72.77 | -1.2 | -91.24 | -1.1
O=C(NCc1ccc(Cl)c(F)c1)c1csc(N2CCN(c3cccc(C(F)(F)F)c3)CC2)n1 [NCGC01407936-01] | 0.0126 | -100.15 | -1.1 | 0.965 | -88.16 | -1.1 | – | – | – | –
Cc1cccc(CNC(=O)c2csc(N3CCN(c4ccc(C5(C#N)CCCC5)cc4)CC3)n2)c1 [NCGC01210598-01] | 1.02 | – | – | 3.93 | – | – | -62.83 | -1.2 | -104.17 | -2.1
Cc1cccc(CNC(=O)c2csc(N3CCN(c4cccc(C(F)(F)F)n4)CC3)n2)c1 [NCGC01210535-01] | 0.58 | – | – | 7.85 | – | – | -96.11 | -1.1 | -90.86 | -1.1
COC(=O)c1ccc(N2CCN(c3nc(C(=O)NCc4cccc(C)c4)cs3)CC2)cc1 [NCGC01211115-01] | 1.29 | – | – | 0.99 | – | – | -72.39 | -1.2 | -81.24 | -1.1
O=C(NCc1c(Cl)cccc1Br)c1csc(N2CCN(c3cccc(C(F)(F)F)c3)CC2)n1 [NCGC01407972-01] | 0.0501 | -90.79 | -1.1 | – | 0.00 | 4 | – | – | – | –
Cc1cccc(COc2ccc(CNC(=O)c3csc(N4CCN(c5cccc(C(F)(F)F)c5)CC4)n3)cc2)c1 [NCGC01407816-01] | 0.2 | -21.51 | 5 | 20 | -99.22 | -1.1 | – | – | – | –

Compound | AC50 (Human ALDH3A1) [µM] | Efficacy (Human ALDH3A1; Table S5, biochemical) | CC-v2 (Human ALDH3A1; [1]) | AC50 (OE19 (3A1)) [µM] | Cell_Efficacy (OE19 (3A1); Table S5, OE19 cells) | Cell_CC-v2 (OE19 (3A1); Table S5, cellular curve class) | Efficacy (Human ALDH3A1; Table S4, biochemical) | CC-v2 (Human ALDH3A1; [2]) | Cell_Efficacy (OE19 (3A1); Table S4, OE19 cells) | Cell_CC-v2 (OE19 (3A1); Table S4, cellular curve class)
Cc1cccc(CNC(=O)c2csc(N3CCN(c4cccc(OCc5ccccc5C)c4)CC3)n2)c1 [NCGC01211373-01] | 0.36 | – | – | 1.11 | – | – | -60.22 | -1.2 | -85.56 | -1.1
O=C(NCc1ccc(Oc2ccc(F)cc2)cc1)c1csc(N2CCN(c3cccc(C(F)(F)F)c3)CC2)n1 [NCGC01407922-01] | 0.398 | -26.41 | -1.4 | 2.24 | -108.81 | -1.1 | – | – | – | –
Cc1cccc(CNC(=O)c2csc(N3CCN(c4ccc(F)cc4)CC3)n2)c1 [NCGC01219292-01] | 1.15 | – | – | 0.88 | – | – | -94.91 | -1.1 | -90.33 | -1.3
Cc1cccc(CNC(=O)c2csc(N3CCN(c4c(F)cccc4F)CC3)n2)c1 [NCGC01211383-01] | 0.91 | – | – | 15.7 | – | – | -88.99 | -1.1 | -112.70 | -2.1
O=C(NCc1ccc2c(c1)CNC2=O)c1csc(N2CCN(c3cccc(C(F)(F)F)c3)CC2)n1 [NCGC01397290-02] | 0.398 | -53.79 | -1.2 | – | 0.00 | 5 | – | – | – | –
O=C(NCc1ccc(N2CCNC2=O)cc1)c1csc(N2CCN(c3cccc(C(F)(F)F)c3)CC2)n1 [NCGC01407779-01] | 0.794 | -73.90 | -1.2 | 2.24 | -130.58 | -1.1 | – | – | – | –
Cc1cccc(CNC(=O)c2csc(N3CCN(c4c(Cl)cccc4Cl)CC3)n2)c1 [NCGC01211131-01] | 0.51 | – | – | 3.13 | – | – | -89.06 | -1.1 | -61.19 | -1.4
O=C(NCc1ccc(-c2ccncc2)nc1)c1csc(N2CCN(c3cccc(C(F)(F)F)c3)CC2)n1 [NCGC01397294-01] | 0.0782 | -73.44 | -1.2 | 8.46 | -106.03 | -1.3 | – | – | – | –
Cc1cccc(CNC(=O)c2csc(N3CCN(c4cccc([N+](=O)[O-])c4)CC3)n2)c1 [Compound 8] | 0.36 | – | – | 0.5 | – | – | -84.72 | -1.1 | -115.29 | -2.1
Cc1cccc(CNC(=O)c2csc(N3CCN(c4cc(C(F)(F)F)nc5ccccc45)CC3)n2)c1 [NCGC01210239-01] | 0.81 | – | – | 9.88 | – | – | -79.44 | -1.1 | -51.72 | -2.4
Cc1cccc(CNC(=O)c2csc(N3CCN(c4ccc(C5(C#N)CCCCC5)cc4)CC3)n2)c1 [NCGC01210611-01] | 0.73 | – | – | 0.62 | – | – | -77.35 | -1.2 | -33.71 | -1.2
NC(=O)c1csc(N2CCN(c3cccc(C(F)(F)F)c3)CC2)n1 [NCGC01407961-01] | – | -23.04 | 4 | 28.2 | -38.73 | -2.3 | – | – | – | –
Cc1cccc(CNC(=O)c2csc(N3CCN(c4cccc(Sc5ccc(C)cc5C)c4)CC3)n2)c1 [NCGC01211184-01] | – | – | – | 0.31 | – | – | -26.97 | 4 | -95.63 | -1.1
COc1cc(N2CCN(c3nc(C(=O)NCc4cccc(C)c4)cs3)CC2)ccc1F [NCGC01211397-01] | 2.89 | – | – | 2.79 | – | – | -71.38 | -1.2 | -82.14 | -1.1
COc1ccc(N2CCN(c3nc(C(=O)NCc4cccc(C(F)(F)F)c4)cs3)CC2)cc1 [NCGC01211588-01] | 1.29 | – | – | 1.97 | – | – | -45.52 | -1.2 | -97.51 | -1.1
Cc1ccc(-c2cccc(CNC(=O)c3csc(N4CCN(c5cccc(C(F)(F)F)c5)CC4)n3)c2)cc1 [Compound 19] | 0.0237 | -83.86 | -1.1 | 0.0102 | -77.01 | -1.1 | – | – | – | –

Reference: PMC13266984 (Journal of medicinal chemistry, 2026)
